Reference: PubChem BioAssay (NCI)
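In this assay, cells in 96-well plates receive the compound at five concentrations for 48 hours. Endpoints are linearly interpolated between the surrounding concentrations. The concentration for full growth arrest is given as TGI.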

Columns and labels:
Test in all cases: NCI anticancer screen, dose series, 48 h
[1] = tested on: XF 498 CNS
[2] = tested on: SF-268 CNS
[3] = tested on: SK-MEL-2 melanoma
[4] = tested on: OVCAR-3 ovarian
[5] = tested on: M14 melanoma
[6] = tested on: SK-MEL-5 melanoma
[7] = tested on: NCI-H460 lung
[8] = tested on: KM20L2 colon
[9] = tested on: HL-60(TB) leukemia
[10] = tested on: SN12C renal
[11] = tested on: DMS 273 small cell lung
[12] = tested on: RXF 393 renal
[13] = tested on: M19-MEL melanoma
[14] = tested on: COLO 205 colon
[15] = tested on: ACHN renal
[16] = tested on: SK-OV-3 ovarian
[17] = tested on: TK-10 renal
[18] = tested on: SF-295 CNS
[19] = tested on: MOLT-4 leukemia
[20] = tested on: UACC-257 melanoma
[21] = tested on: SK-MEL-28 melanoma
[22] = tested on: RPMI-8226 leukemia
[23] = tested on: OVCAR-5 ovarian
[24] = tested on: DLD-1 colon
[25] = tested on: SNB-78 CNS
[26] = tested on: LOX IMVI melanoma
[27] = tested on: HCT-116 colon
[28] = tested on: OVCAR-8 ovarian
[29] = tested on: NCI-H23 lung
[30] = tested on: SNB-19 CNS
[31] = tested on: A498 renal
[32] = tested on: SW-620 colon
[33] = tested on: NCI-H226 lung
[34] = tested on: KM12 colon
[35] = tested on: A549 NSCLC
[36] = tested on: HT29 colon
[37] = tested on: DMS 114 small cell lung
[38] = tested on: UO-31 renal
[39] = tested on: HOP-92 NSCLC
[40] = tested on: HOP-18 NSCLC
[41] = tested on: HCT-15 colon
[42] = tested on: RXF-631 renal
[43] = tested on: 786-0 renal
[44] = tested on: MALME-3M melanoma
[45] = tested on: UACC-62 melanoma
[46] = tested on: HCC-2998 colon
[47] = tested on: SF-539 CNS
[48] = tested on: LXFL 529 NSCLC
[49] = tested on: CAKI-1 renal
[50] = tested on: U251 CNS
[51] = tested on: EKVX NSCLC
[52] = tested on: SNB-75 CNS
[53] = tested on: IGROV1 ovarian
[54] = tested on: OVCAR-4 ovarian
[55] = tested on: CCRF-CEM leukemia
[56] = tested on: K-562 leukemia
[57] = tested on: HOP-62 NSCLC
[58] = tested on: NCI-H522 lung

Question: For `COc1ccccc1NC(=O)C1=C(C)NC(C)=C(C(=O)Nc2ccccc2OC)C1c1cccc2ccccc12`, which TGI [1] is on record?
Answer: The TGI was > 100 µM.

Question: What about the TGI [2] of the same compound?
Answer: The TGI was > 100 µM.

Question: And the TGI [3]?
Answer: The TGI was > 100 µM.

Question: What about the TGI [4] of the same compound?
Answer: Its TGI is > 100 µM.

Question: And the TGI [5]?
Answer: The TGI was > 100 µM.

Question: And the TGI [6]?
Answer: Its TGI is > 100 µM.

Question: What about the TGI [7] of the same compound?
Answer: Its TGI is > 100 µM.

Question: What about the TGI [8] of the same compound?
Answer: The TGI was > 100 µM.

Question: What about the TGI [9] of the same compound?
Answer: Its TGI is > 100 µM.

Question: What about the TGI [10] of the same compound?
Answer: Its TGI is > 100 µM.

Question: And the TGI [11]?
Answer: Its TGI is > 100 µM.

Question: And the TGI [12]?
Answer: The TGI was > 100 µM.

Question: And the TGI [13]?
Answer: The TGI was > 100 µM.

Question: What about the TGI [14] of the same compound?
Answer: The TGI was > 100 µM.

Question: And the TGI [15]?
Answer: The TGI was > 100 µM.

Question: What about the TGI [16] of the same compound?
Answer: The TGI was > 100 µM.

Question: And the TGI [17]?
Answer: The TGI was > 100 µM.

Question: And the TGI [18]?
Answer: The TGI was > 100 µM.

Question: And the TGI [19]?
Answer: The TGI was > 100 µM.

Question: And the TGI [20]?
Answer: The TGI was > 100 µM.

Question: What about the TGI [21] of the same compound?
Answer: Its TGI is > 100 µM.

Question: And the TGI [22]?
Answer: Its TGI is > 100 µM.

Question: What about the TGI [23] of the same compound?
Answer: Its TGI is > 100 µM.

Question: And the TGI [24]?
Answer: The TGI was > 100 µM.

Question: And the TGI [25]?
Answer: Its TGI is 62.5 µM.

Question: What about the TGI [26] of the same compound?
Answer: The TGI was > 100 µM.

Question: And the TGI [27]?
Answer: Its TGI is > 100 µM.

Question: And the TGI [28]?
Answer: The TGI was > 100 µM.

Question: And the TGI [29]?
Answer: Its TGI is > 100 µM.

Question: And the TGI [30]?
Answer: The TGI was > 100 µM.

Question: What about the TGI [31] of the same compound?
Answer: The TGI was > 100 µM.

Question: And the TGI [32]?
Answer: Its TGI is > 100 µM.

Question: What about the TGI [33] of the same compound?
Answer: The TGI was > 100 µM.

Question: And the TGI [34]?
Answer: The TGI was > 100 µM.

Question: And the TGI [35]?
Answer: Its TGI is > 100 µM.

Question: And the TGI [36]?
Answer: Its TGI is > 100 µM.

Question: And the TGI [37]?
Answer: The TGI was > 100 µM.

Question: What about the TGI [38] of the same compound?
Answer: The TGI was > 100 µM.

Question: And the TGI [39]?
Answer: Its TGI is 7.87 µM.

Question: What about the TGI [40] of the same compound?
Answer: The TGI was > 100 µM.

Question: And the TGI [41]?
Answer: Its TGI is > 100 µM.

Question: What about the TGI [42] of the same compound?
Answer: Its TGI is > 100 µM.

Question: What about the TGI [43] of the same compound?
Answer: Its TGI is > 100 µM.

Question: What about the TGI [44] of the same compound?
Answer: Its TGI is > 100 µM.

Question: And the TGI [45]?
Answer: Its TGI is > 100 µM.

Question: What about the TGI [46] of the same compound?
Answer: The TGI was > 100 µM.

Question: And the TGI [47]?
Answer: The TGI was > 100 µM.

Question: What about the TGI [48] of the same compound?
Answer: Its TGI is > 100 µM.

Question: What about the TGI [49] of the same compound?
Answer: The TGI was > 100 µM.

Question: And the TGI [50]?
Answer: Its TGI is > 100 µM.

Question: And the TGI [51]?
Answer: The TGI was > 100 µM.

Question: What about the TGI [52] of the same compound?
Answer: Its TGI is 98.8 µM.

Question: What about the TGI [53] of the same compound?
Answer: The TGI was > 100 µM.

Question: And the TGI [54]?
Answer: Its TGI is 41.5 µM.

Question: What about the TGI [55] of the same compound?
Answer: Its TGI is > 100 µM.

Question: What about the TGI [56] of the same compound?
Answer: Its TGI is > 100 µM.

Question: How did the TGI [1] turn out when `CC(O)C(NC(=O)c1ccccc1)C(=O)N(Cc1ccccc1)Cc1ccccc1` (stereo unspecified) was run?
Answer: Its TGI is > 100 µM.

Question: And the TGI [2]?
Answer: The TGI was > 100 µM.

Question: And the TGI [3]?
Answer: Its TGI is > 100 µM.

Question: What about the TGI [4] of the same compound?
Answer: Its TGI is > 100 µM.

Question: And the TGI [5]?
Answer: Its TGI is > 100 µM.

Question: What about the TGI [6] of the same compound?
Answer: Its TGI is > 100 µM.

Question: What about the TGI [7] of the same compound?
Answer: The TGI was > 100 µM.

Question: And the TGI [8]?
Answer: Its TGI is > 100 µM.

Question: And the TGI [9]?
Answer: Its TGI is > 100 µM.

Question: What about the TGI [10] of the same compound?
Answer: The TGI was > 100 µM.

Question: What about the TGI [57] of the same compound?
Answer: Its TGI is > 100 µM.

Question: And the TGI [11]?
Answer: Its TGI is > 100 µM.

Question: What about the TGI [13] of the same compound?
Answer: Its TGI is > 100 µM.

Question: And the TGI [14]?
Answer: Its TGI is > 100 µM.

Question: What about the TGI [15] of the same compound?
Answer: The TGI was > 100 µM.

Question: What about the TGI [16] of the same compound?
Answer: The TGI was > 100 µM.

Question: And the TGI [17]?
Answer: The TGI was > 100 µM.

Question: And the TGI [18]?
Answer: The TGI was > 100 µM.

Question: What about the TGI [19] of the same compound?
Answer: The TGI was > 100 µM.

Question: And the TGI [20]?
Answer: Its TGI is > 100 µM.

Question: What about the TGI [21] of the same compound?
Answer: The TGI was > 100 µM.

Question: And the TGI [22]?
Answer: Its TGI is > 100 µM.

Question: What about the TGI [23] of the same compound?
Answer: The TGI was > 100 µM.

Question: And the TGI [24]?
Answer: The TGI was > 100 µM.

Question: What about the TGI [25] of the same compound?
Answer: The TGI was > 100 µM.

Question: What about the TGI [26] of the same compound?
Answer: The TGI was > 100 µM.

Question: And the TGI [28]?
Answer: The TGI was > 100 µM.

Question: And the TGI [29]?
Answer: The TGI was > 100 µM.

Question: What about the TGI [58] of the same compound?
Answer: The TGI was 26.5 µM.

Question: And the TGI [30]?
Answer: The TGI was > 100 µM.

Question: And the TGI [31]?
Answer: The TGI was > 100 µM.

Question: What about the TGI [32] of the same compound?
Answer: The TGI was > 100 µM.

Question: What about the TGI [33] of the same compound?
Answer: The TGI was > 100 µM.

Question: And the TGI [34]?
Answer: The TGI was > 100 µM.

Question: And the TGI [35]?
Answer: Its TGI is > 100 µM.

Question: And the TGI [37]?
Answer: Its TGI is > 100 µM.

Question: And the TGI [38]?
Answer: The TGI was > 100 µM.

Question: What about the TGI [39] of the same compound?
Answer: The TGI was > 100 µM.

Question: And the TGI [40]?
Answer: Its TGI is > 100 µM.

Question: What about the TGI [41] of the same compound?
Answer: The TGI was > 100 µM.

Question: And the TGI [42]?
Answer: The TGI was > 100 µM.

Question: And the TGI [43]?
Answer: The TGI was > 100 µM.

Question: What about the TGI [44] of the same compound?
Answer: Its TGI is > 100 µM.

Question: What about the TGI [45] of the same compound?
Answer: The TGI was > 100 µM.

Question: What about the TGI [46] of the same compound?
Answer: The TGI was > 100 µM.

Question: And the TGI [47]?
Answer: The TGI was > 100 µM.

Question: And the TGI [48]?
Answer: Its TGI is > 100 µM.

Question: What about the TGI [49] of the same compound?
Answer: Its TGI is 49.9 µM.

Question: What about the TGI [50] of the same compound?
Answer: The TGI was > 100 µM.

Question: And the TGI [51]?
Answer: The TGI was > 100 µM.

Question: What about the TGI [52] of the same compound?
Answer: The TGI was > 100 µM.

Question: What about the TGI [53] of the same compound?
Answer: The TGI was > 100 µM.

Question: What about the TGI [54] of the same compound?
Answer: The TGI was > 100 µM.

Question: And the TGI [55]?
Answer: The TGI was > 100 µM.

Question: What about the TGI [56] of the same compound?
Answer: Its TGI is > 100 µM.
